Measurements taken from US8557804B2, “Nicotinic receptor agonists for the treatment of inflammatory diseases” (priority 2002, dated 2013).
Several values for one entry are separate records, joined by “and”; a condition that tells them apart may be missing. Identical values can stand only once. Entries after “also recorded” stand apart in the source; their conditions may differ. Counter-ions that a name gives are not always drawn. Like-named read-outs stand apart in the source and are kept apart here.

Legend:
[1] = tested on: collagen 1A mRNA expression by normal human lung fibroblasts; test: Collagen A1 gene expression by RT-PCR in primary normal lung fibroblasts; format: cell-based
Description: Asthma is characterized by airway structural changes, including sub-epithelial collagen deposition, that may be a cause for the chronicity of the disease. An imbalance between collagen synthesis and its degradation by fibroblasts may be involved in this process (56). In preliminary experiments, we investigated the effects of nicotinic agonists on collagen A1 synthesis produced by primary normal fibroblasts. Collagen A1 gene expression was evaluated by RT-PCR.
The results are expressed percentage gene expression in agonists treated cells compared to non-treated cells.

[2] = tested on: CD80 expression on AMJ2-C11 cells; test: B7 (CD80) molecule expression on AMJ2-C11 cells; format: cell-based, mouse; details: LPS (0.1 μg/ml) stimulated, 40 μM for 48 h; LPS alone 38%
Description: The effects of nicotine and DMPP on B7 (CD80) molecule expression were tested in vitro. AMJ2-C11 cells (mouse alveolar macrophages, from the ATCC) were incubated with 40 μM nicotine or DMPP and stimulated with LPS (0.1 μg/ml) or SR antigen (50 μg/ml) for 48 hours.

[3] = tested on: Saccharopolyspora rectivirgula (SR) antigen-induced HP in mice; details: IP nicotine 0.5 to 2.0 mg/kg twice a day
[4] = tested on: CD86 expression on alveolar macrophages; test: CD86 expression in SR-stimulated BAL cells of a normal patient; format: cell-based, human; details: SR-stimulated alveolar macrophages
Description: A broncho-alveolar lavage was performed on a normal patient, and alveolar macrophages were isolated.

[5] = tested on: IL-10 mRNA expression in AMJ2-C11 cells; test: IL-10 mRNA expression by RT-PCR in AMJ2-C11 cells; format: cell-based, mouse
Description: (§1) The effect of nicotine or DMPP treatment on AMJ2-C11 cells was tested on TNF-α, IL-10 mRNA expression by RT-PCR. These cytokines are involved in the development of pulmonary inflammatory diseases such as HP, asthma and sarcoidosis (52-55). […] Reference is made to FIG. 3 where results are expressed as a % of expression, 100% being attributed to the LPS alone group. The intensity of the band was obtained by dividing the intensity of the TNF-α band by that of β-actin. […] Reference is made to FIG. 4 where results are expressed as described in FIG. 5.

IFN-γ mRNA = details: pulmonary macrophages and lymphocytes from nicotine treated animals, anti-CD3 + IL-2
[6] = tested on: TNF-α mRNA expression in AMJ2-C11 cells; test: TNF-α mRNA expression by RT-PCR in AMJ2-C11 cells; format: cell-based, mouse
Description: as §1

blood eosinophils = test: Blood eosinophil transmigration through an artificial basement membrane (Matrigel coated chemotaxis chamber); format: cell-based
Description: Infiltration of eosinophils and other inflammatory cells into lung tissues is an important feature of asthma and the cause of airway inflammation and hyper-responsiveness. The passage of inflammatory cells from the circulation to the lung involves migration through the vascular endothelium, the basement membrane, and extra-cellular matrix components. Inflammatory cells cross the basement membrane by producing proteinases. In these preliminary in vitro experiments, the effects of various nicotinic agonists on the migration of purified blood eosinophils through an artificial basement membrane (Matrigel® coated chemotaxis chamber) were investigated. […] Results are expressed as a percentage of inhibition (agonists-treated cells) compared to the control condition without the agonists.

[7] = tested on: SR-induced inflammation in mice; test: Short term SR-induced acute lung inflammation in mice, BAL cells; format: in vivo
Description: The Intranasal instillation of Saccharopolyspora rectivirgula (SR) antigens, the causative agent for farmer's lung, to mice, induces a prominent inflammatory response in the lung. Neutrophils are the first inflammatory cells recruited at the site of inflammation.

IL-4 mRNA expression = IL-4 mRNA expression induced by a 24 h LPS stimulation; format: cell-based; details: LPS stimulation 24 h, 40 μM
Description: The effect of agonist treatment on mRNA expression of IL-4, a cytokine that is well known to be involved in the development of asthma, was also tested (53). […] Cells were treated with different doses (40 to 160 μM for both nicotine and DMPP).

[8] = tested on: lung resistance in hyperresponsive dogs; test: Dog model of lung hyper-responsiveness to metacholine; format: in vivo; details: 12 hyperresponsive dogs
Description: (§2) In this model 12 dogs naturally sensitized to the roundworm Ascaris suum were used in a cross-over study design. Four groups of 3 dogs were randomly formed, exposed to the allergen, and each animal was left either untreated or received alternatively, ASM-002 (4 mg/kg 2× day in the food), or prednisone (1 mg/kg 1× day in the food), the most commonly used corticosteroid drug used to treat inflammation in asthma.
Hyper-responsiveness is described as the capacity of the lung to react (to increase lung resistance) to a non-specific external stimuli like metacholine or to allergens A hyper-responsive allergen-sensitized dog (asthmatic) will react to lower concentrations of metacholine compared to a non allergic dog. Similarly, improvement in lung hyper-responsiveness is shown by an increase in metacholine concentrations necessary to induce the same level of lung resistance.
Increasing concentrations of metacholine were administered with or without treatment with ASM-002 or Prednisone™ and lung resistance recorded.

[9] = tested on: lung resistance after metacholine challenge; test: Airway hyper-reactivity / lung resistance to metacholine in asthmatic mice (FlexiVENT); format: in vivo; details: ASM-002 4 mg/kg intra-nasal 3 days and 10 minutes prior to challenge; Salbutamol 10 minutes before
Description: Airway hyper-reactivity (AHR) in response to metacholine was measured in anesthetized, tracheotomized, ventilated mice using a computer-controlled ventilator (FlexiVENT™).
Increasing doses of metacholine (0 mg/kg-32.5 mg/kg) were administered through the jugular vein.
Lung response to a broncho-constrictive agent, metacholine, was measured by a Flexi-vent® apparatus. Ovalbumin-sensitized animals were treated intra-nasally with ASM-002 (4 mg/kg) during 3 days and 10 minutes prior to the metacholine challenge and compared to untreated OVA-sensitized animals. A negative control group of un-sensitized animals and a positive control group that received Salbutamol (Ventolin) 10 minutes before the metacholine challenge were also included.

human bronchial rings = test: Isometric study on human bronchial rings pre-contracted with metacholine; details: cumulative doses
Description: (§3) As described previously, tracheal or bronchial rings were mounted isometrically to force transducers in organ baths containing Krebs bicarbonate solution at 37° C. and bubbled with 95% O2-5% CO2, pre-contracted with submaximal concentration of metacholine cumulative doses of ASM-002 added. Changes of tension are recorded. Results are expressed as a percentage of maximal contraction for mouse (FIG. 34, p=0.002), dog (FIG. 35, p=0.004) and human (FIG. 36)

[10] = tested on: mouse tracheal airway smooth muscle; test: Isometric study on isolated mouse tracheas pre-contracted with metacholine; details: cumulative doses, p=0.002
Description: Tracheal rings were mounted isometrically to force transducers in organ baths containing Krebs bicarbonate solution at 37° C. and bubbled with 95% O2-5% CO2, pre-contracted with submaximal concentration of metacholine (10^−5) and cumulative doses of the analogs were added to the baths. Changes of tension are recorded. Results are expressed as a percentage of maximal contraction (FIG. 29).
as §3

dog bronchial rings = test: Isometric study on dog bronchial rings pre-contracted with metacholine; details: cumulative doses, p=0.004
Description: as §3

[11] = tested on: lung inflammation in dogs sensitized to Ascaris suum; test: Dog asthma model (Ascaris suum), cellular inflammation in bronchoalveolar lavages; format: in vivo; details: ASM-002 8 mg/kg (4 mg/kg 2× day in the food); prednisone 1 mg/kg 1× day; n=12
Description: as §2
Cellular inflammation was evaluated in the bronchoalveolar lavages.

[12] = tested on: TNF release by human blood monocytes; test: cells; format: cell-based
Description: Human monocytes were isolated from the blood of asthmatic patients by Ficoll-paque density gradient, let to adhere to tissue culture plates and stimulated with LPS (100 ng/ml) for 18 hours at 37° C. with or without increasing concentrations of nicotine. The release of TNF, a potent pro-inflammatory mediator, was measured in the cell culture supernatant by the ELISA method. Results are expressed as a percentage release from LPS-stimulated untreated cells (FIG. 28).
Tumor necrosis factor (TNF) is a mediator released in inflammatory states.
Human blood monocytes were isolated by Ficoll-paque density gradient, let to adhere to tissue culture plates and stimulated with LPS (100 ng/ml) for 18 hours at 37° C. with or without increasing concentrations of nicotine analogues.

[13] = tested on: allergic inflammation of the lungs in ovalbumin-sensitized mice; test: Ovalbumin-sensitized mouse asthma model, BAL cell counts; format: in vivo, Balb/c mice; details: Mus musculus, 72 h; intra-nasal 0.5 to 4 mg/kg/d for 3 days, n=8; read-out: ED50, cellular inflammation in the lungs (BAL cells)
Description: Groups of Balb/c mice were sensitized by intra-peritoneal injection of 20 μg OVA protein (chicken egg albumin; Sigma-Aldrich) emulsified in 2 mg aluminum hydroxide in PBS. After 4 weeks, challenge doses of 1.5%/50 μl OVA were administered intranasally. The challenge was performed daily for 3 consecutive days and then the mice assessed for allergic inflammation of the lungs 24 h after the last aerosol exposure. Groups of mice were treated with various concentrations of DMPP during the challenge period. Broncho-alveolar lavage (BAL) was performed and the fluid centrifuged at 400 g to separate cells from liquid.
Ovalbumin-sensitized mice (n=8) were challenged with the allergen and simultaneously treated intra-nasally with increasing concentrations of ASM-002 (0.5 to 4 mg/kg/d) for 3 days. The number of cells recovered by broncho-alveolar lavage was used as a measure of lung inflammation.

[14] = tested on: LTC4 release by blood eosinophils; test: LTC4 production by PAF-stimulated blood eosinophils (enzyme immunoassay); format: cell-based, human; details: for LTC4: eosinophils pre-incubated 18 hours with analog, PAF stimulated, untreated 1725.80
Description: Blood eosinophils, the most increased inflammatory cells in asthma, were isolated by negative selection using bead-conjugated anti-CD16 monoclonal antibody and magnetic activating cell sorting. Cells were pre-Incubated for 18 hours with the various DMPP analogs and then stimulated with 1 µM platelet-activating factor (PAF) to produce LTC4 which was measured by enzyme immunoassay.
Human blood eosinophils were isolated from blood of asthmatic patients, stimulated in vitro with platelet activating factor (PAF) to produce large amounts of LTC4, and treated or not with 80 μM ASM-002.

[15] = reference (40); cited from earlier work
[16] = purified blood eosinophils, Matrigel

CN1CCCC1c1cccnc1 (stereo not drawn) [nicotine, Nicotine]
collagen A1 gene expression ([1]; 1 and 10 μM): slight inhibitory effect | collagen A1 gene expression ([1]; higher concentrations (above 10 μM)): no effects | percentage of expression of CD80 [2]: 20% | lymphocyte population in BAL [3]: decrease in the lymphocyte population | number of total cells in bronchoalveolar lavage (BAL) [3]: significantly reduced | expression of CD86 relative to non-treated cells [4]: about half of the expression | reduction of IL-10 mRNA expression ([5]; LPS stimulated 24 h, 40 μM): 88% and 87% | drop of IL-10 mRNA expression ([5]; SR-stimulated 24 h, 160 μM): 60% | expression of IFN-γ mRNA vs cells from non-treated animals (IFN-γ mRNA): significantly lower expression | reduction of TNF-α mRNA expression ([6]; LPS stimulated 24 h, 40 μM): 98% | effect on TNF-α mRNA expression ([6]; SR-stimulated 24 h, only the 160 μM dose (80 and 160 μM tested)): had an effect on mRNA expression | inhibition of eosinophil transmigration (blood eosinophils; [16]): reduce blood eosinophil transmigration | effect on SR-induced inflammation (BAL cells) ([7]; intra-nasal every 6 h, 24 h after SR, DMPP 0.5 mg/kg, nicotine 0.5 mg/kg, epibatidine 2 μg/kg): marked inhibitory effect; also recorded: significant inhibitory effect | reduction of IL-4 mRNA expression (IL-4 mRNA expression): ≤ 90% | reduction of IL-4 mRNA expression (IL-4 mRNA expression; listed as Nicotine): up to 92%

O=c1cccc2n1C[C@@H]1CNC[C@H]2C1 [cytisine]
inhibition of eosinophil transmigration (blood eosinophils): reduce blood eosinophil transmigration

C[C@]12C=CC(=O)C=C1CC[C@@H]1[C@@H]2C(=O)C[C@@]2(C)[C@H]1CC[C@]2(O)C(=O)CO [prednisone]
dogs with decreased lung resistance / improved hyper-responsiveness [8]: None of the 12 dogs

C[N+]1(C)CCCN(c2ccccc2)CC1 [ASM-002, 1,1-dimethyl-4-phenylhomopiperazinium iodide]
lung resistance induced by metacholine compared to untreated OVA-sensitized mice [9]: significant reduction (return to baseline levels) | relaxing effect on pre-contracted human bronchi (human bronchial rings): relaxing effect | relaxing effect on pre-contracted mice tracheas [10]: relaxing effect | relaxing effect on pre-contracted dog bronchi (dog bronchial rings): relaxing effect | dogs with decreased lung resistance / improved hyper-responsiveness [8]: 7 out of 12 | cellular inflammation in the lungs of asthmatic dogs [11]: inhibits significantly | TNF release ([12]; 40 μM, mean of 5 subjects): inhibits TNF release | EC50 ([12]; Monocyte, LPS-stimulated human blood monocytes, n=6, read-out: EC50, inhibition of TNF release): 3000 nM | ED50 [13]: 0.71 mg/kg | LTC4 production ([14]; 80 μM, PAF, eosinophils of asthmatic patients, 6 patients, p=0.0007): significant inhibition | LTC4 [14]: 246.40 pg/mL

Clc1ccc(C2CC3CCC2N3)cn1 (stereo not drawn) [epibatidine, Epibatidine]
collagen A1 gene expression ([1]; primary normal fibroblasts, RT-PCR): inhibitory effect is also observed | analgesic potential, times that of morphine [15]: two hundred | inhibition of eosinophil transmigration (blood eosinophils; [16]): reduce blood eosinophil transmigration | effect on SR-induced inflammation (BAL cells) ([7]; mouse, in vivo): marked inhibitory effect; also recorded: significant inhibitory effect

CC[N+]1(CC)CCN(c2ccccc2)CC1 [ASM-005]
effect on TNF release ([12]; monocytes of asthmatic patients, LPS 100 ng/ml 18 h, n=8 to 10): Except for ASM-005, all analogs tested had an inhibitory effect

CNC1(C)C2CCC(C2)C1(C)C (stereo not drawn) [mecamylamine]
effect of the antagonist on the DMPP inhibition of eosinophil transmigration (blood eosinophils; together with DMPP): reverses the effect of DMPP

CC[N+]1(C)CCN(c2ccccc2)CC1 [ASM-003]
LTC4 [14]: 613.90 pg/mL

C[N+]1(C)CCCN(c2ccccc2)CC1 (as salt: iodide) [ASM-002, 1,1-dimethyl-4-phenylhomopiperazinium iodide]
melting point: 158 to 160 °C
